What was measured:
PC12 cells = experiment: In vitro neuroprotection against oxygen glucose deprivation (OGD), MTT viability readout; format: cell-based; details: OGD 90 min, reoxygenation, furoxan 1, 10 or 25 μM, 24 hr
Procedure: FIGS. 3A-3C: Neuroprotection (FIG. 3A), MTT treatment was used to assess cell viability (FIG. 3B), and pCREB modulation (FIG. 3C) of furoxan compounds. Neuroprotection assay workflow: expose PC12 cells to oxygen glucose deprivation (OGD) for 90 min→reoxygenate and add furoxan (1, 10, or 25 μM)→incubate for 24 hr→MTT readout of viability. Data represented as mean and s.e.m. (n=3). *=p<0.05, **=p<0.01, ***=p<0.001 compared to vehicle control using one way ANOVA analysis with Dunnett's post-hoc test. Red dashed line indicates threshold of vehicle effects. For pCREB modulation, 31b (25 μM) was examined (PC-12 cells, 48 hr incubation) in the following: without insult, with OGD, L-NAME.
It has been shown that furoxans are protective against oxygen glucose deprivation (OGD), a commonly used cellular model of ischemic stroke. PC12 cells were submitted to OGD for 90 minutes followed by reoxygenation and treatment with varying concentrations of selected embodiments of compounds of Formula I (indicated in FIG. 3A). After 24 hr, MTT treatment was used to assess cell viability (FIG. 3B). […] It has been shown previously that 4-N-oxides release NO at a much slower rate than corresponding 2-N-oxides.

Male C57BL/6 mice = experiment: Step-through passive avoidance (STPA), scopolamine-induced amnesia; format: in vivo; details: scopolamine 1 mg/kg i.p. alone (vehicle treated: 270 s±30 s), 24 hr after training
Procedure: FIGS. 4A-4B: STPA experimental timeline (FIG. 4A), and results of Male C57BL/6 mice administered either vehicle or 31b via i.p. injection at 60 min or 120 min prior to training in STPA (FIG. 4B). […] Memory retention was measured as latency to enter the dark compartment 24 h after training. Data represented as mean and s.e.m.
The STPA apparatus consisted of an acrylic box with an illuminated compartment connected to a darkened compartment by a small guillotine door. Mice were placed in the illuminated side and were trained against their natural tendency to translocate to the dark side using an aversive stimulus (shock via electrified floor grading). Memory consolidation is measured as the latency times to enter the dark compartment 24 hr after training.
All procedures were performed under the approved IACUC protocol #108451. Male C57BL/6 mice (Envigo), N=9 per group, were habituated at the animal facility for at least 14 days. Ear tags were applied and animals weighed. 2 hr prior to the drug adminstration the mice were individually acclimated to the illuminated compartment to assess tendency to enter the dark chamber (measured in seconds). In this phase no shock was be delivered. […] The mice were then administered either vehicle (95 [0.9% NaCl]:5 [DMSO]) or 31b (0.1, 1, 10, or 20 mg/kg) via i.p. injection (50 μL) at 1 h or 2 h prior to training. […] Mice were individually placed into the light compartment and upon translocation to the dark compartment the guiltine door closed and the mice were trained by delivering a mild adversive stimulus (0.5 mA) via the electrified floor grading of the dark chamber. Each mouse was held in the dark chamber for 30 seconds, then returned to their cage for 120 seconds before the second training session. […] Memory retention was measured 24 hours after training by placing the same mouse in the light chamber and measuring latency to enter the dark chamber (no aversive stimulus is delivered during the retention test). Data was analyzed by one way ANOVA analysis with Dunnett's post-hoc test.

| SMILES | Neuroprotection against OGD (cell viability by MTT) (PC12 cells) | Latency to enter the dark compartment (Male C57BL/6 mice) |
| --- | --- | --- |
| CC1CCN(Cc2no[n+]([O-])c2-c2ccc(Br)cc2)CC1 [33b] | outperform the corresponding 2-N-oxides |  |
| CC1CCN(Cc2no[n+]([O-])c2-c2ccc(OC(F)(F)F)cc2)CC1 [37b, 4-((4-methylpiperidin-1-yl)methyl)-3-(4-(trifluoromethoxy)phenyl)-1,2,5-oxadiazole 2-oxide] | outperform the corresponding 2-N-oxides |  |
| Cc1ccc(-c2c(CN3CCC(C)CC3)no[n+]2[O-])cc1 [38b, 4-((4-methylpiperdin-1-yl)methyl)-3-(p-tolyl)-1,2,5-oxadiazole 2-oxide] | outperform the corresponding 2-N-oxides |  |
| [2H]C1([2H])CC(C)CC([2H])([2H])N1Cc1no[n+]([O-])c1-c1ccc(F)cc1 [41b] | outperform the corresponding 2-N-oxides |  |
| CN1[C@@H]2C[C@@H](OC(=O)[C@H](CO)c3ccccc3)C[C@H]1[C@@H]1O[C@@H]12 [Scopolamine, reference compound] |  | 63.5 s |

Source: US10913732B2, “Furoxans as therapies for neurodegenerative disorders” (The University of Toledo, priority 2016, dated 2021)
